Counter-ions that a name gives are not always drawn. A value given as a limit tells only on which side of the number the result lay.

The experiment deals with T1, human glycine transporter type 1 (Gly-T1) (Homo sapiens, UniProt P48067).
T1 construct: JAR) cells endogenously expressing human glycine transporter type 1 (Gly-T1); endogenous in cells; host or cells: JAR human placental choriocarcinoma cells
T1 sequence (P48067 1-706): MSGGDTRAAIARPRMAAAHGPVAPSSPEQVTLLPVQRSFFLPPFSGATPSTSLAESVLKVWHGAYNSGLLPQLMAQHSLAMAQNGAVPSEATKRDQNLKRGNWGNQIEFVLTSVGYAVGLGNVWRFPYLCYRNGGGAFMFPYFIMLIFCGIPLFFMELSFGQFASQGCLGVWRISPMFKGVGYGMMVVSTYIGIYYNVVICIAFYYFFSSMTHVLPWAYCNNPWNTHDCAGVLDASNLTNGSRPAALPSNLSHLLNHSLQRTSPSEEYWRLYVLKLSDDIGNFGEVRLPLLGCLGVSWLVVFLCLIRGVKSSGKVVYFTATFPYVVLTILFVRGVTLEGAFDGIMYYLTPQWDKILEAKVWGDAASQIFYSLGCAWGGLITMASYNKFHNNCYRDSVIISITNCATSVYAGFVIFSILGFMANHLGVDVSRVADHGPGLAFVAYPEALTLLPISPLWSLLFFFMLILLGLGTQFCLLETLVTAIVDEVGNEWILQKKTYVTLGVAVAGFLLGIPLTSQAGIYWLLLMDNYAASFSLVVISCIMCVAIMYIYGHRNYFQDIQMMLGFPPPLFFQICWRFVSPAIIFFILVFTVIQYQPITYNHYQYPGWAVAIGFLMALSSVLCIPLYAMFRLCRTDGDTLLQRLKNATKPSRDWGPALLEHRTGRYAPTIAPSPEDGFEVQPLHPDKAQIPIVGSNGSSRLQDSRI
In words: Glycine Transporter 1 (GlyT1) Uptake Assay, in vitro. The class given is cell-based. The settings on record: inhibition of [14C] glycine uptake (5 μM) in JAR cells endogenously expressing GlyT1; approximate values. On the procedure:
This cell-based assay measures the ability of test compounds to inhibit the uptake of glycine by the glycine transporter type 1. Human placental choriocarcinoma (JAR) cells endogenously expressing human glycine transporter type 1 (Gly-T1) were used for this assay. For uptake assays, JAR cells were cultured in 96-well cytostar T scintillating microplates (Amersham Biosciences) in RPMI 1640 medium containing 10% fetal bovine serum in the presence of penicillin (100 μg/ml) and streptomycin (100 μg/ml). Cells were plated at a density of 4×10^4 cells/well and grown at 37° C. in a humidified atmosphere of 5% CO2 for 24 h.
Culture medium was removed from Cytostar plate and JAR cells were incubated with 30 μl of Uptake buffer (120 mM NaCl, 2 mM KCl, 1 mM CaCl2, 1 mM MgCl2, 10 mM Hepes, 5 mM alanine, pH 7.5) with or without compound for 5 min. Then 30 μl of [^14C] glycine (101 mCi/mmol, obtained from Perkin Elmer) diluted in Uptake buffer was added to each well to give a final concentration of 5 μM. After incubation at room temperature for the desired time usually 1-2 h, sealed 96-well Cytostar plates were counted on a TopCount (Packard). Nonspecific uptake of [^14C] glycine was determined in the presence of 10 μM cold ALX-5407 (Sigma).
IC50 curves were generated from the raw data collected from the TopCount and fitted with a four-parameter logistic equation using in-house data analysis tool, Activity Base.
The term IC50 denotes the concentration that gives 50% inhibition. A lower IC50 goes with greater potency in that assay. Regarding `O=C(O)CN1CCCC(N(c2ccccc2)c2cccc(C(F)(F)F)c2)C1` (centres unmarked) [Cpd II-4, 2-(3-(phenyl(3-(trifluoromethyl)-phenyl)amino)piperidin-1-yl)acetic acid], the IC50 was > 2000 nM. The same measure for `O=C(O)CN1CCC(N(c2ccccc2)c2ccc(C(F)(F)F)cc2)C1` (centres unmarked) [Cpd II-5, 2-(3-(phenyl(4-(trifluoromethyl)-phenyl)amino)pyrrolidin-1-yl)acetic acid]: 18 nM.

Regarding `O=C(O)CN1CCC(C2c3ccccc3-c3ccccc32)CC1` [Cpd I-28, 2-(4-(9H-fluoren-9-yl)piperidin-1-yl)acetic acid], the IC50 was > 10000 nM.

`O=C(O)CN1CCC(C(c2ccccc2)c2ccccc2)CC1` [Cpd I-8, 2-(4-benzhydrylpiperidin-1-yl)acetic acid]: the 50% inhibitory concentration (IC50) turned out to be 536 nM. Next, `C[C@@H]1CN(c2c3ccccc3cc3ccccc23)CCN1CC(=O)O` [Cpd I-12, (R)-2-(4-anthracen-9-yl-2-methyl-piperazin-1-yl)acetic acid]: 687 nM; `O=C(O)CN1CCCC(N(c2ccccc2)c2ccc(C(F)(F)F)cc2)C1` (centres unmarked) [Cpd II-3, 2-(3-(phenyl(4-(trifluoromethyl)-phenyl)amino)piperidin-1-yl)acetic acid]: 296 nM; `C[C@@H]1CN(c2cccc3ccccc23)CCN1CC(=O)O` [Cpd I-10, (R)-2-(2-methyl-4-naphth-1-ylpiperazin-1-yl)acetic acid]: 953 nM. Next, `C[C@@H]1CN(C2(c3ccc(Cl)cc3)CCCCC2)CCN1CC(=O)O` [Cpd I-26, (R)-2-(4-(1-(4-chlorophenyl)cyclohexyl)-2-methylpiperazin-1-yl)acetic acid]: 101 nM. The same measure for `O=C(O)CN1CCN(c2c3ccccc3cc3ccccc23)CC1` [Cpd I-11, 2-(4-anthracen-9-ylpiperazin-1-yl)acetic acid]: > 10000 nM; for `CC1CC(C(c2ccccc2)c2ccccc2)CCN1CC(=O)O` (centres unmarked) [Cpd I-15, 2-(4-benzhydryl-2-methyl-piperidin-1-yl)acetic acid]: 52 nM. In turn, `C[C@@H]1CN(C2(c3ccccc3)CCCCC2)CCN1CC(=O)O` [Cpd I-14, (R)-2-(2-methyl-4-(1-phenyl-cyclohexyl)-piperazin-1-yl)acetic acid] came in with an IC50 of 1530 nM. `O=C(O)CN1CCCC(C(c2ccccc2)c2ccc(C(F)(F)F)cc2)C1` (centres unmarked) [Cpd II-1, 2-(3-(phenyl(4-(trifluoromethyl)-phenyl)methyl)piperidin-1-yl)acetic acid] yielded an IC50 of 562 nM. Next, `O=C(O)CN1CCC(N(c2ccccc2)c2cccc(-c3cccnc3)c2)C1` (centres unmarked) [Cpd II-10, 2-(3-(phenyl(3-(pyridin-3-yl)-phenyl)amino)pyrrolidin-1-yl)acetic acid]: 14 nM; `O=C(O)CN1CCC(N(c2ccccc2)c2cccc(C(F)(F)F)c2)CC1` [Cpd I-7, 2-(4-(phenyl(3-(trifluoromethyl)-phenyl)amino)piperidin-1-yl)-acetic acid]: 393 nM.

Turning to `O=C(O)CN1CCC(C2c3ccccc3Oc3ccccc32)CC1` [Cpd I-30, 2-(4-(9H-xanthen-9-yl)piperidin-1-yl)acetic acid], the IC50 was determined as 5320 nM. `C[C@@H]1CN(C2CCCCc3ccccc32)CCN1CC(=O)O` (stereo partly drawn) [Cpd I-1, 2-((R)-2-methyl-4-(6,7,8,9-tetrahydro-5H-benzo[7]annulen-5-yl)-piperazin-1-yl)acetic acid]: the concentration for half-maximal inhibition (IC50) amounted to 258 nM. Next, `O=C(O)CN1CCC(N(c2ccccc2)c2ccc(C(F)(F)F)cc2)CC1` [Cpd I-22, 2-(4-(phenyl(4-(trifluoromethyl)phenyl)-amino)piperidin-1-yl)acetic acid]: 129 nM; `O=C(O)CN1CCN(c2cccc3ccccc23)CC1` [Cpd I-9, 2-(4-naphth-1-ylpiperazin-1-yl)acetic acid]: > 10000 nM; `C[C@@H]1CN(C2c3ccccc3CCc3ccccc32)CCN1CC(=O)O` [Cpd I-5]: 147 nM. The same measure for `C[C@@H]1CN(C2CCc3ccc(Br)cc32)CCN1CC(=O)O` (stereo partly drawn) [Cpd I-3, 2-((R)-4-(6-bromo-2,3-dihydro-1H-inden-1-yl)-2-methyl-piperazin-1-yl)acetic acid]: 1010 nM. The same measure for `O=C(O)CN1CCC(C(c2ccccc2)c2ccccc2C(F)(F)F)CC1` (centres unmarked) [Cpd I-16, 2-(4-(phenyl(2-(trifluoromethyl)-phenyl)-methyl)piperidin-1-yl)acetic acid]: 3520 nM; for `C[C@@H]1CN(C2CCCCC2c2ccccc2)CCN1CC(=O)O` (stereo partly drawn) [Cpd I-6, 2-((R)-2-methyl-4-(2-phenylcyclohexyl)-piperazin-1-yl)acetic acid dihydrochloride]: 1130 nM; for `O=C(O)CN1CCN(C2(c3ccccc3)CCCCC2)CC1` [Cpd I-13, 2-(4-(1-phenylcyclohexyl)piperazin-1-yl)acetic acid]: > 10000 nM.

(Values after patent US8258306B2, “Glycine transporter-1 inhibitors” (Amgen Inc., priority 2007, dated 2012).)
